The values below come from US11470848B2, “Consortium of (carbamate) thiodicarb-resistant and (pyrethroid) biphenthrin-resistant bacteria and use thereof in liquid fertilizers” (priority 2018, dated 2022).

Where two headings read alike, the source gives them in different places.

Type in all cases: cell-based
Data set [1] deals with Bacillus subtillis. In words: Stagewise adaptation on growth media with thiodicarb / bifenthrin, mortality. The note with it: for Resistant to: (FINAL): after the adaptation process, 40 stages. The procedure: (§1) Bacteria strains, nitrifiers, phosphorus solubilizers and antagonists for pathogens: • a) Azotobacter vinelandii • b) Bacillus megaterium • c) Bacillus subtillis • d) Bacillus thuringiensis • e) Clostridium pasteuranium • f) Rhizobium Preparation for Stage Development • 1. Glass material is sterilized in an autoclave. • 2. The required amount of growth media is prepared, DFA Agar, Malt Agar (Corn Agar) and (PDA) to obtain viable colonies. • 3. Lethal dose (LD) applied to a hectare is established, for thiodicarb as well as bifenthrin. 10 Petri dishes are prepared with 0.1 LD of thiodicarb of bifenthrin. Dishes are incubated at 25° C. for 72 hours with cold light.
(§2) Methodology • a. Petri dishes are placed inside the laminar flow chamber along with the diluted samples, to seed microorganisms in the dishes, a one ml sample of the strain is taken with an automated pipette, 10^−1 and 10^−2 solutions are performed and each solution is homogenized. • b. Having the petri dishes with the sterile and cold growth media, it is homogenized with 6 right to left movements, 6 clockwise movements, 6 counterclockwise movements and 6 front to back movements over a flat horizontal surface until the inoculum is completely integrated into the media, stand until it solidifies and each dish is covered with parafilm to avoid contamination during incubation. • c. Dishes with thiodicarb and Bifenthrin are placed inside the incubator at 25° C. for 72 hours with a cold light lamp. • d. Inoculated dishes are incubated for 72 hours and the bacteria growth will be recorded, the product concentration impact is determined over the plate growth (12 hours of incubation). • e. The residual impact of the product is reviewed after 7 days in the malt agar and PDA agar medias. • f. If there is no growth over 10%, the process is repeated until a mortality under 90% is obtained. • g. The colony diameter is determined using a graduated ruler, data is recorded subtracting the diameter of the seeded dish, from which the effect over the mycelial growth will be determined compared to the control (not poisoned MA, denominated as percentage of inhibition of radial growth (PIRG %). • h. Progress is recorded daily and after 7 days analysis of an acceptable coverage is performed, if not, the procedure is repeated as many times as required. • i. From the 10 Petri dishes for each microorganism, the one with the lowest mortality is the one that will continue with the following study. • j. The study is performed again using this percentage until coverage increases and so on, the addition of thiodicarb and bifenthrin is alternated with the LD in intervals of 0.1 LD; all these experiments have been designed with the experimental strains and a control. • k. With the data obtained from the bacterial growth, the percentage of inhibition of gradual growth is obtained, the data is transformed for its analysis with the expression 2 arc sin. A two-way classification analysis of variance is applied and later the Turkey test is performed using a 5% probability.
(§3) Characteristics for this procedure were recorded during all stages through the following indicators: • a. Growth speed • b. Percentage of inhibition measured in Number of CFU/mm • c. Percentage of poison resistance
(§4) For each species, stages analyzing times required to cover the entire field were performed. Once this time was determined, they were left to rest for 10 days to be later subject to the following protocol: […]

For data set [2], the system named is Rhizobium sp. Described as above. As to conditions: for Resistant to: (FINAL): after the adaptation process, 40 stages. As for the experimental part: as §1
(§5) Methodology • a. Petri dishes are placed inside the laminar flow chamber along with the diluted samples, to seed microorganisms in the dishes, a one ml sample of the strain is taken with an automated pipette, 10^−1 and 10^−2 solutions are performed and each solution is homogenized. • b. […] Inoculated dishes are incubated for 72 hours and the bacteria growth will be recorded, the product concentration impact is determined over the plate growth (12 hours of incubation). • e. […] The colony diameter is determined using a graduated ruler, data is recorded subtracting the diameter of the seeded dish, from which the effect over the mycelial growth will be determined compared to the control (not poisoned MA, denominated as percentage of inhibition of radial growth (PIRG %). • h. Progress is recorded daily and after 7 days analysis of an acceptable coverage is performed, if not, the procedure is repeated as many times as required. • i. From the 10 Petri dishes for each microorganism, the one with the lowest mortality is the one that will continue with the following study. • j. […]
(§6) Characteristics for this procedure were recorded during all stages through the following indicators: • a. […] Percentage of inhibition measured in Number of CFU/mm • c. […]

Data set [3] deals with Bacillus megaterium. Described as above. The note with it: for Resistant to: (FINAL): after the selective process, 40 stages. The procedure: as §1
as §2, with “If there is no growth over 10%, the process is repeated until a mortality under 90% is obtained. • g.” left out, “The study is performed again using this percentage until coverage increases and so on, the addition of thiodicarb and bifenthrin is alternated with the LD in intervals of 0.1 LD; all these experiments have been designed with the experimental strains and a control. • k. With the data obtained from the bacterial growth, the percentage of inhibition of gradual growth is obtained, the data is transformed for its analysis with the expression 2 arc sin. A two-way classification analysis of variance is applied and later the Turkey test is performed using a 5% probability.” left out
as §6, §4

The subject of data set [4] is Azotobacter vinelandii. As for the experimental part: as §1, §5, §6
In data set [5] the test system is Clostridium pasteuranium. Briefly: Stagewise adaptation on growth media with thiodicarb / bifenthrin, mortality. The note with it: for Resistant to: (FINAL): after the selective process, 40 stages. The procedure:
as §1, §2, §3, §4

Data set [6] deals with Bacillus thuringiensis. Described as above. The note with it: for Resistant to: (FINAL): after the adaptation process, 48 stages. The procedure: as §1, §2, §3, §4
Where [7] appears, read: bifenthrin 0.9 LD (0.00000042 gr), stages E-37 and E-38.
Where [8] appears, read: thiodicarb 0.1 LD (0.0000175 gr), stage E-2.
Setting [9] is: thiodicarb 0.2 LD (0.000035 gr), stages E-3 and E-4.
Where [10] appears, read: thiodicarb 0.9 LD (0.00016 gr), stages E-33 and E-34.

As to `Cc1c(COC(=O)[C@@H]2[C@H](/C=C(\Cl)C(F)(F)F)C2(C)C)cccc1-c1ccccc1` (racemic) [bifenthrin, 2-methyl biphenyl-3-ilmetil(2)-(1RS,3RS)-3-(2-chlorine 3,3,3-trifluoropropene)-2,2-dimethyl-cyclo-propane-carboxylate], the “Resistant to: (FINAL)” value in data set [1] is on record as 1 LD of thiodicarb; in data set [2], 1 DL of thiodicarb; in data set [3] it was 1 LD of thiodicarb; in data set [5], 1 DL of thiodicarb; in data set [6], 1.2 LD of thiodicarb. Besides, the mortality (in general, the percentage killed) came out at 65% in data set [1] (bifenthrin 0.3 LD (0.00000018 gr), stages E-13 and E-14); 63% in data set [3] (bifenthrin 0.1 LD (0.00000006 gr), stages E-5 and E-6); 60% in data set [4] (bifenthrin 0.2 LD (0.00000012 gr), stages E-7 and E-8); 10% in data set [4] (setting [7]); 10% in data set [5] (setting [7]).

Take `CS/C(C)=N\OC(=O)N(C)SN(C)C(=O)O/N=C(\C)SC` [thiodicarb]: the “Resistant to: (FINAL)” value in data set [1] is 1 LD of thiodicarb; in data set [2], 1 DL of thiodicarb; in data set [3] it was 1 LD of thiodicarb; in data set [5] it was 1 DL of thiodicarb; in data set [6], 1.2 LD of thiodicarb. Also, the mortality in data set [1] (thiodicarb 0.1 LD (0.0000175 gr), stage E-1, until day 68 of incubation) was 82%; in data set [1] (setting [8]) it was 80%; in data set [2] (setting [9]), 60%; in data set [3] (setting [9]), 65%; in data set [4] (setting [10]), 10%; in data set [5] (thiodicarb 0.1 LD (0.0000175 gr), stage E-1, until incubation day 72), 87%. Besides, the mortality is recorded as 84% in data set [5] (setting [8]); 30% in data set [6] (setting [10]); 25% in data set [6] (thiodicarb 1 LD (0.00018 gr), stages E-35 and E-36); 14% in data set [6] (thiodicarb 1.2 LD (0.00022 gr), stages E-43 and E-44).
